Here are results for 74 compounds from PubChem BioAssay AID1996.

For orientation: kinetic solubility means solubility judged after dilution from a stock solution rather than from solid.

Values after ≈ are worked out from the molar mass of the structure shown.

The conditions of the series: buffer; pH 7.4; 200.0 µM.
Consider `CCC(CC)C(=O)c1c[nH]c(C(=O)OC)c1`, for which the kinetic solubility is greater than 33.5 µg/mL.
The compound `Cc1ccc(N2CC(C(=O)NC3CCC(C)CC3)CC2=O)cc1` (centres undefined) came in with a solubility (kinetic) of 2.5 µg/mL (≈ 7.95 µM).
As for `CC(C)(C)NS(=O)(=O)c1ccc(NC(=S)NC(=O)C2CCC2)cc1`, the figure is 1.1 µg/mL (≈ 2.98 µM); as for `Cc1ccccc1NC(=O)NC1CCCc2ccccc21` (centres undefined), 0.9 µg/mL (≈ 3.21 µM).
As for `COc1ccc(N2C(=O)c3ccccc3C2=O)cc1`, the figure is 10.7 µg/mL (≈ 42.2 µM); as for `Cc1onc(-c2ccccc2)c1CNC(=O)C1COc2ccccc2O1` (centres undefined), 46.2 µg/mL (≈ 132 µM).
The compound `C=CCOc1ccc(/C=C2\SC(N)=NC2=O)cc1OC` registered a solubility (kinetic) of 5.7 µg/mL (≈ 19.6 µM).
As for `Cc1nc(C)n(C)c(=O)c1-c1ccccc1`, the kinetic solubility is greater than 32.1 µg/mL.
As to `Cc1ccc(CONC(=O)c2cccc([N+](=O)[O-])c2)cc1`, the solubility (kinetic) is greater than 42.9 µg/mL.
As for `CCCCn1c(N)c(NCc2ccccc2)c(=O)[nH]c1=O`, the solubility (kinetic) came out at 39.1 µg/mL (≈ 136 µM).
Regarding `Cc1cccc(NS(=O)(=O)c2ccc(C(C)(C)C)cc2)n1`, the kinetic solubility amounted to 42.7 µg/mL (≈ 140 µM). The solubility kinetic values of the last two compounds are within 1.5-fold of each other.
For `N#CCCN(C(=O)COC(=O)/C=C/c1cccs1)c1ccccc1` the value was 9.9 µg/mL (≈ 29.1 µM).
For `CC(=O)c1c(C)[nH]c(C(=O)Nc2ccc(Cl)cc2)c1C` the value was 2.2 µg/mL (≈ 7.57 µM); for `Cc1ccc(NC(=O)C2CCCN2C(=O)OC(C)(C)C)cc1C` (centres undefined), greater than 47.8 µg/mL; for `COc1cc(NC(=S)N(C)CCC#N)c(OC)cc1Cl`, 38.9 µg/mL (≈ 124 µM).
For `CC(C)CC1(C)NC(=O)N(CC(=O)Nc2ccc3c(c2)OCCO3)C1=O` (centres undefined) the value was greater than 54.2 µg/mL; for `CC1Oc2ccccc2N(CC(=O)NCCN2CCOCC2)C1=O` (centres undefined), greater than 50 µg/mL; for `CCn1c(N)c(Br)c(=O)[nH]c1=O`, greater than 35.1 µg/mL.
`CCCn1c(=O)c(C(=O)Nc2cccc(C)c2)c(O)c2ccccc21`: the solubility (kinetic) was less than 0.4 µg/mL.
For `COc1cccc2cc(C(=O)NCCN3CCOCC3)oc12` the value was greater than 45.7 µg/mL; for `Clc1nssc1=Nc1ccc(Br)cc1`, 1.4 µg/mL (≈ 4.55 µM); for `Cl.Nc1ncnc2nc[nH]c12`, greater than 25.7 µg/mL.
For `COc1ccc(OC)c(-c2cc(C(=O)N3CCOCC3)no2)c1` the value was greater than 47.7 µg/mL.
As for `Cc1sc(NC(=O)COc2ccccc2)c(C#N)c1C`, the figure is 0.5 µg/mL (≈ 1.75 µM); as for `C1=NCCc2c1[nH]c1ccccc21.[O-][Cl+3]([O-])([O-])O`, greater than 40.6 µg/mL; as for `CCc1ccc(OCC2Cn3c(nc4c3c(=O)[nH]c(=O)n4C)O2)cc1` (centres undefined), 3.8 µg/mL (≈ 11.1 µM).
Turning to `CCC(C)(NC(=O)c1ccccn1)C(=O)NC1CCCC1` (centres undefined), the kinetic solubility was greater than 43.4 µg/mL.
As for `CC(C)CC(=O)Nc1ncc([N+](=O)[O-])s1`, the figure is greater than 34.4 µg/mL; as for `COc1ccc(NC(=O)C2Cc3ccccc3O/C2=N\O)cc1` (centres undefined), 10.2 µg/mL (≈ 32.7 µM).
`Cc1ccc(NC(=S)NCC2CCN(C(C)c3ccccc3)C2)cc1` (centres undefined): the kinetic solubility is greater than 53 µg/mL.
Compound `O=C(Nc1nccs1)C1CC(=O)N(c2ccc(Cl)cc2)C1` (centres undefined) registered a kinetic solubility of 4.1 µg/mL (≈ 12.7 µM).
As for `CCNC(=O)COC(=O)c1cccc(Br)c1`, the figure is 40.8 µg/mL (≈ 143 µM); as for `O=C1SCCC1NS(=O)(=O)c1ccc([N+](=O)[O-])cc1` (centres undefined), 38.3 µg/mL (≈ 127 µM); as for `O=C(Nc1cccc(NC(=O)c2ccco2)c1)c1ccccc1`, 45.9 µg/mL (≈ 150 µM).
As for `CCOC(=O)c1cc(-c2csc(Nc3c(C)cc(C)cc3C)n2)on1`, the figure is 0.4 µg/mL (≈ 1.12 µM); as for `Cc1ccc2nc(-c3ccccn3)cc(C(=O)NC(C)C(C)(C)C)c2c1` (centres undefined), 3.2 µg/mL (≈ 9.21 µM).
As for `COC(=O)c1cnc(Nc2ccc(Cl)cc2)c([N+](=O)[O-])c1`, the figure is less than 0.2 µg/mL; as for `COc1ccc(C)cc1NC(=S)N1CCN(c2ncccn2)CC1`, 47.4 µg/mL (≈ 138 µM); as for `O=C(CSc1ccccc1)NCCc1ccc(F)cc1`, 34.9 µg/mL (≈ 121 µM).
The compound `NC(=NC(=O)c1ccc(OCC(F)(F)F)nc1)c1ccccc1` showed a kinetic solubility of 6.6 µg/mL (≈ 20.4 µM).
The compound `c1ccc(-c2nc(N3CCOCC3)sc2-c2ccccc2)cc1` showed a solubility (kinetic) of less than 0.3 µg/mL.
Compound `CCOc1ccccc1N=CC1=C(O)CC(c2ccccc2)CC1=O` (centres undefined) yielded a solubility (kinetic) of 3.4 µg/mL (≈ 10.1 µM).
For `Cc1ccc(C(=O)NC2CCN(C(=O)Nc3ccccc3)CC2)cc1` the value was 4.4 µg/mL (≈ 13 µM); for `Cc1cc(C)cc(OCCCn2ccnc2)c1`, 26.4 µg/mL (≈ 115 µM).
The compound `COc1ccc(/C=C2\N=C(C)OC2=O)cc1OC` came in with a solubility (kinetic) of 36.9 µg/mL (≈ 149 µM).
As for `CCN(C#N)c1nc(NC(C)C)nc(NC(C)(C)C)n1`, the figure is 37 µg/mL (≈ 133 µM); as for `Cc1[nH]c2ccccc2c1/C=C(\C#N)C(=O)NC1CC1`, 6.8 µg/mL (≈ 25.6 µM).
In turn, `CCOC(=O)CSc1nc(C(C)(C)C)nc2ccccc12` registered a kinetic solubility of 0.7 µg/mL (≈ 2.3 µM).
As for `O=C(c1ccco1)N1CCn2cccc2C1c1ccccc1` (centres undefined), the figure is 42 µg/mL (≈ 144 µM); as for `Cc1ccc(SCC(=O)NCc2ccccc2)cc1`, greater than 40.7 µg/mL.
Consider `O=C(NCC(O)c1ccccc1)c1cccs1` (centres undefined), for which the solubility (kinetic) is greater than 37.1 µg/mL.
For `S=C(NCC(c1ccco1)N1CCCC1)Nc1ccccc1` (centres undefined) the value was greater than 47.3 µg/mL; for `Cc1cccc(-n2c(C)nc3ccc(Cl)cc3c2=O)c1`, 22.1 µg/mL (≈ 77.6 µM).
For `CC(=O)c1c(C)[nH]c(C(=O)Nc2cc(F)ccc2C)c1C` the value was 4.5 µg/mL (≈ 15.6 µM); for `CCOC(=O)c1c(C)[nH]c(C(=O)NCCN2CCOCC2)c1C`, greater than 48.5 µg/mL; for `O=C(/C=C/c1ccco1)N1CCN(S(=O)(=O)c2ccccc2)CC1`, greater than 52 µg/mL.
`COCCNC(=O)Cn1cc(/C=C(\C#N)C(=O)NC2CC2)c2ccccc21` displayed a kinetic solubility greater than 55 µg/mL.
As for `O=C(c1ccccc1F)N1C(=O)c2cccc3cccc1c23`, the figure is less than 0.6 µg/mL; as for `Cc1c(C(=O)NCC(c2ccco2)N2CCCC2)sc2ccccc12` (centres undefined), greater than 53.2 µg/mL; as for `CC(C)c1ccc(NC(=S)N2CCN(C)CC2)cc1`, greater than 41.6 µg/mL.
Turning to `Cc1nc(C)c(-c2csc(Nc3ccc(O)cc3C)n2)s1`, the solubility (kinetic) was less than 0.2 µg/mL.
For `CCC1CN(C(=O)NCc2ccccc2)c2cc(C)ccc2O1` (centres undefined) the value was 3.8 µg/mL (≈ 12.2 µM).
As for `COc1ccc(/C=C(\C#N)C(=O)NCc2ccccc2)cc1`, the figure is 2.2 µg/mL (≈ 7.53 µM); as for `O=C(NC1(C(F)(F)F)NC(=O)N(C2CCCCC2)C1=O)c1ccco1` (centres undefined), 50.2 µg/mL (≈ 140 µM).
With `Cc1ncc([N+](=O)[O-])n1CCOC(=O)C12CC3CC(CC(C3)C1)C2`, the solubility (kinetic) was 5.3 µg/mL (≈ 15.9 µM).
For `COc1ccc(CCNC(=O)NS(=O)(=O)c2ccc(C)cc2)cc1OC` the value was greater than 56.8 µg/mL; for `Cc1ccc(S(=O)(=O)c2ccc([N+](=O)[O-])cn2)cc1`, 21 µg/mL (≈ 75.5 µM).
For `Cc1nc(C(F)(F)F)ccc1C(=O)Nc1ccc2ccccc2n1` the value was 3.3 µg/mL (≈ 9.96 µM); for `Nc1nc(NCCOCCO)nc(N2CCCCCC2)c1[N+](=O)[O-]`, 47.4 µg/mL (≈ 139 µM).
For the compound `O=C(O)c1ccc(CNC(=O)c2ccc(C(F)(F)F)cc2)cc1`, the solubility (kinetic) is greater than 48.5 µg/mL.
For `CN(C(=O)c1cc2ccccc2o1)c1c(N)n(Cc2ccccc2)c(=O)[nH]c1=O` the value was greater than 58.6 µg/mL; for `Cc1[nH]c2ccc(C(=O)NC3CCC(C)CC3)cc2c1C` (centres undefined), 0.9 µg/mL (≈ 3.16 µM); for `O=C(NCCC(=O)N1CCCC1)c1ccccc1Cl`, greater than 42.1 µg/mL.
The compound `CN1C(=O)C(O)N=C(c2ccccc2)c2ccccc21` (centres undefined) displayed a solubility (kinetic) greater than 39.9 µg/mL.
